In US11357779B2 (G1 Therapeutics, Inc., priority 2018, dated 2022):
Read-outs that look alike come from different tables or passages of the source.

Experiment: Noncompartmental pharmacokinetic parameters (Cmax, Tmax, AUC, Racc) in QD and BID cohorts of Form B
Type: in vivo, human
Details: human, plasma, oral
Procedure: Analysis of plasma concentration versus time data for calculation of standard pharmacokinetic (PK) parameters following oral administration was conducted using Phoenix WinNonlin version 6.3 using actual blood sampling times.
The following pharmacokinetic parameters were calculated from the concentration versus time data obtained in Example 1 for each of the above QD (200 mg, 300 mg, 400 mg, 500 mg, or 650 mg dosed) and BID (100 mg, 150 mg, or 200 mg doses) Form B of Compound II dosage cohorts: • Cmax—the observed peak plasma concentration determined from the plasma concentration versus time data obtained on Day 1 and Day 29, as applicable; • Tmax—the time to reach the observed peak plasma concentration from the plasma concentration versus time data obtained on Day 1 and Day 29, as applicable; • AUC—area under the plasma concentration versus time curve during a dosing interval on Day 1 and Day 29, as applicable; and • Racc—accumulation ratio calculated as AUCDay 29/AUCDay 1.

Question: With `CC(C)N1CCN(c2ccc(Nc3ncc4cc5n(c4n3)C3(CCCCC3)CNC5=O)nc2)CC1` [Compound I, 2′-((5-(4-isopropylpiperazin-1-yl)pyridin-2-yl)amino)-7′,8′-dihydro-6′H-spiro[cyclohexane-1,9′-pyrazino[1′,2′:1,5]pyrrolo[2,3-d]pyrimidin]-6′-one] as the molecule, how does the Cmax (300 mg, Cohort 2, 300 mg QD of Form B, Day 1, upon exclusion of data for patient that vomited immediately after dosing, read-out: Cmax, Mean) read?
Answer: 55.2 ng/mL

Question: And the AUC(0-t) (300 mg, Cohort 2, 300 mg QD of Form B, Day 1, read-out: AUClast, Mean)?
Answer: 413 ng·h/mL

Question: What about the AUC(0-t) (300 mg, Cohort 2, 300 mg QD of Form B, Day 1, read-out: AUClast, Median) of the same molecule?
Answer: 554 ng·h/mL

Question: What about the Cmax (300 mg, Cohort 2, 300 mg QD of Form B, Day 1, read-out: Cmax, Mean) of the same molecule?
Answer: 40.2 ng/mL

Question: What about the Cmax (300 mg, Cohort 2, 300 mg QD of Form B, Day 1, read-out: Cmax, Median) of the same molecule?
Answer: 44.3 ng/mL

Question: What about the Tmax (300 mg, Cohort 2, 300 mg QD of Form B, Day 1, read-out: Tmax, Mean) of the same molecule?
Answer: 4.67 h

Question: What about the Tmax (300 mg, Cohort 2, 300 mg QD of Form B, Day 1, read-out: Tmax, Median) of the same molecule?
Answer: 4 h

Question: What about the AUC(0-t) (300 mg, Compound I, 300 mg QD of Form B, Cohort 2, Day 29, read-out: AUClast (Mean)) of the same molecule?
Answer: 592 ng·h/mL

Question: And the AUC(0-t) (300 mg, Compound I, 300 mg QD of Form B, Cohort 2, Day 29, read-out: AUClast (Median))?
Answer: 604 ng·h/mL

Question: What about the Cmax (300 mg, Compound I, 300 mg QD of Form B, Cohort 2, Day 29, read-out: Cmax (Mean)) of the same molecule?
Answer: 47 ng/mL

Question: What about the Cmax (300 mg, Compound I, 300 mg QD of Form B, Cohort 2, Day 29, read-out: Cmax (Median)) of the same molecule?
Answer: 40.5 ng/mL

Question: What about the Tmax (300 mg, Compound I, 300 mg QD of Form B, Cohort 2, Day 29, read-out: Tmax (Mean)) of the same molecule?
Answer: 6 h

Question: What about the Tmax (300 mg, Compound I, 300 mg QD of Form B, Cohort 2, Day 29, read-out: Tmax (Median)) of the same molecule?
Answer: 4 h

Question: And the AUC(0-t) (400 mg, Cohort 3, 400 mg QD of Form B, Day 1, read-out: AUClast, Mean)?
Answer: 202 ng·h/mL

Question: And the AUC(0-t) (400 mg, Cohort 3, 400 mg QD of Form B, Day 1, read-out: AUClast, Median)?
Answer: 183 ng·h/mL

Question: What about the Cmax (400 mg, Cohort 3, 400 mg QD of Form B, Day 1, read-out: Cmax, Mean) of the same molecule?
Answer: 20.1 ng/mL

Question: What about the Cmax (400 mg, Cohort 3, 400 mg QD of Form B, Day 1, read-out: Cmax, Median) of the same molecule?
Answer: 21.6 ng/mL

Question: And the Tmax (400 mg, Cohort 3, 400 mg QD of Form B, Day 1, read-out: Tmax, Mean)?
Answer: 6 h

Question: What about the Tmax (400 mg, Cohort 3, 400 mg QD of Form B, Day 1, read-out: Tmax, Median) of the same molecule?
Answer: 6 h

Question: And the AUC(0-t) (400 mg, Compound I, 400 mg QD of Form B, Cohort 3, Day 29, read-out: AUClast (Mean))?
Answer: 278 ng·h/mL

Question: And the AUC(0-t) (400 mg, Compound I, 400 mg QD of Form B, Cohort 3, Day 29, read-out: AUClast (Median))?
Answer: 348 ng·h/mL

Question: And the Cmax (400 mg, Compound I, 400 mg QD of Form B, Cohort 3, Day 29, read-out: Cmax (Mean))?
Answer: 19 ng/mL

Question: What about the Cmax (400 mg, Compound I, 400 mg QD of Form B, Cohort 3, Day 29, read-out: Cmax (Median)) of the same molecule?
Answer: 23.5 ng/mL

Question: And the Tmax (400 mg, Compound I, 400 mg QD of Form B, Cohort 3, Day 29, read-out: Tmax (Mean))?
Answer: 5.33 h

Question: And the Tmax (400 mg, Compound I, 400 mg QD of Form B, Cohort 3, Day 29, read-out: Tmax (Median))?
Answer: 6 h

Question: And the AUC(0-t) (500 mg, Cohort 4, 500 mg QD of Form B, Day 1, read-out: AUClast, Mean)?
Answer: 577 ng·h/mL

Question: And the AUC(0-t) (500 mg, Cohort 4, 500 mg QD of Form B, Day 1, read-out: AUClast, Median)?
Answer: 611 ng·h/mL

Question: What about the Cmax (500 mg, Cohort 4, 500 mg QD of Form B, Day 1, read-out: Cmax, Mean) of the same molecule?
Answer: 48.9 ng/mL

Question: What about the Cmax (500 mg, Cohort 4, 500 mg QD of Form B, Day 1, read-out: Cmax, Median) of the same molecule?
Answer: 49.6 ng/mL

Question: And the Tmax (500 mg, Cohort 4, 500 mg QD of Form B, Day 1, read-out: Tmax, Mean)?
Answer: 5.75 h

Question: And the Tmax (500 mg, Cohort 4, 500 mg QD of Form B, Day 1, read-out: Tmax, Median)?
Answer: 6 h

Question: What about the AUC(0-t) (500 mg, Compound I, 500 mg QD of Form B, Cohort 4, Day 29, read-out: AUClast (Mean)) of the same molecule?
Answer: 607 ng·h/mL

Question: And the AUC(0-t) (500 mg, Compound I, 500 mg QD of Form B, Cohort 4, Day 29, read-out: AUClast (Median))?
Answer: 591 ng·h/mL

Question: What about the Cmax (500 mg, Compound I, 500 mg QD of Form B, Cohort 4, Day 29, read-out: Cmax (Mean)) of the same molecule?
Answer: 43.2 ng/mL

Question: What about the Cmax (500 mg, Compound I, 500 mg QD of Form B, Cohort 4, Day 29, read-out: Cmax (Median)) of the same molecule?
Answer: 45 ng/mL

Question: What about the Tmax (500 mg, Compound I, 500 mg QD of Form B, Cohort 4, Day 29, read-out: Tmax (Mean)) of the same molecule?
Answer: 5.33 h

Question: And the Tmax (500 mg, Compound I, 500 mg QD of Form B, Cohort 4, Day 29, read-out: Tmax (Median))?
Answer: 6 h

Question: What about the AUC(0-t) (650 mg, Cohort 5, 650 mg QD of Form B, Day 1, read-out: AUClast, Mean) of the same molecule?
Answer: 799 ng·h/mL

Question: What about the AUC(0-t) (650 mg, Cohort 5, 650 mg QD of Form B, Day 1, read-out: AUClast, Median) of the same molecule?
Answer: 805 ng·h/mL

Question: What about the Cmax (650 mg, Cohort 5, 650 mg QD of Form B, Day 1, read-out: Cmax, Mean) of the same molecule?
Answer: 62.5 ng/mL

Question: What about the Cmax (650 mg, Cohort 5, 650 mg QD of Form B, Day 1, read-out: Cmax, Median) of the same molecule?
Answer: 67 ng/mL

Question: What about the Tmax (650 mg, Cohort 5, 650 mg QD of Form B, Day 1, read-out: Tmax, Mean) of the same molecule?
Answer: 7.67 h

Question: And the Tmax (650 mg, Cohort 5, 650 mg QD of Form B, Day 1, read-out: Tmax, Median)?
Answer: 8 h

Question: What about the AUC(0-t) (650 mg, Compound I, 650 mg QD of Form B, Cohort 5, Day 29, read-out: AUClast (Mean)) of the same molecule?
Answer: 607 ng·h/mL

Question: And the AUC(0-t) (650 mg, Compound I, 650 mg QD of Form B, Cohort 5, Day 29, read-out: AUClast (Median))?
Answer: 591 ng·h/mL

Question: What about the Cmax (650 mg, Compound I, 650 mg QD of Form B, Cohort 5, Day 29, read-out: Cmax (Mean)) of the same molecule?
Answer: 43.2 ng/mL

Question: What about the Cmax (650 mg, Compound I, 650 mg QD of Form B, Cohort 5, Day 29, read-out: Cmax (Median)) of the same molecule?
Answer: 45 ng/mL

Question: And the Tmax (650 mg, Compound I, 650 mg QD of Form B, Cohort 5, Day 29, read-out: Tmax (Mean))?
Answer: 5.33 h

Question: What about the Tmax (650 mg, Compound I, 650 mg QD of Form B, Cohort 5, Day 29, read-out: Tmax (Median)) of the same molecule?
Answer: 6 h
